Read-outs that look alike come from different tables or passages of the source. Where a SMILES comes first, the peptide text is derived from it. [ ]: non-standard residue; d: D form. Ala(6-(2-MePh)pyridin-3-yl) = Cc1ccccc1-c1ccc(C[C@H](N)C(=O)O)cn1; Bip(2'-Et-4'-OMe) = CCc1cc(OC)ccc1-c1ccc(C[C@H](N)C(=O)O)cc1; αMePhe(2-F) = C[C@](N)(Cc1ccccc1F)C(=O)O; Aib = CC(C)(N)C(=O)O
What was measured:
[1] = Exposure during ipGTT in ob/ob mice; type: in vivo, mouse; settings: sc
[2] = Solubility of the compound of SEQ ID NO:9 in the presence of Zn(II) / Zn adduct; type: physicochemical; settings: pH 6.8, 50 mM phosphate buffer
Method: The concentration of the compound of SEQ ID NO:9 was analyzed by a Waters HPLC system (Waters 2690 Separations Module and Waters 996 Photodiode Array Detector). A gradient method was used where solvent A is 0.05% trifluoroacetic acid (TFA, Sigma) in water, and solvent B is 0.05% TFA in acetone nitrile (ACN, Sigma). Light at a wavelength of 220 nm was used to detect the absorption of the compound of SEQ ID NO:9.
Once the Zn/Compound of SEQ ID NO:9 adduct was formed, formulation development studies were conducted in order to evaluate the solubility of the compound of SEQ ID NO:9 in the presence of Zn(II). An excess amount of the compound of SEQ ID NO:9 was suspended in pH 6.8, 50 mM phosphate buffer. The suspension was then placed on an orbital shaker (Model, 100 RPM) at ambient temperature for 12 hours. The suspension was then centrifuged (Model, speed) and the saturated the clear supernatant of the compound of SEQ ID NO:9 was collected into 10 ml centrifuge tubes. A predetermined amount of zinc acetate solution (50 mM, pH 6.8 phosphate buffer) was added into the saturated solution and then precipitated. The concentration of the compound of SEQ ID NO:9 in solution was obtained by centrifuging the suspension and analyzing the clear supernatants by HPLC. […]

[3] = Solubility of protamine/Compound of SEQ ID NO:9 adduct and in protamine solution; type: physicochemical
Source text: Thus, the administration of the protamine/Compound of SEQ ID NO:9 adduct may need a suitable suspending agent; or it maybe injected as dry powder.
Therefore, suspension of the compound of SEQ ID NO:9 in the presence of protamine could still provide extended release effect without using pre-formed protamine/SEQ ID NO:9 adduct.

[4] = Dog pharmacokinetic study (intravenous and subcutaneous, 67 μg/kg); type: in vivo; settings: for half-life: read-out: t1/2 (converted)
Method: The pharmacokinetic parameters of the compound of SEQ ID NO:9 were determined in male beagle dogs (n=4, 14±1 kg). Following an overnight fast, each animal received the compound of SEQ ID NO:9 either as an intravenous bolus via femoral vein (67 μg/kg) or by subcutaneous injection given at near the shoulder blades (67 μg/kg). Each animal received both intravenous and subcutaneous doses with a one-week washout between doses following a crossover design. […] Serial blood samples were collected in EDTA-containing microcentrifuge tubes at predose, 0.083, 0.25, 0.5, 0.75, 1, 2, 4, 6, 8, 24, and 30 hours post-dose after intravenous administration; at predose, 0.25, 0.5, 0.75, 1, 2, 4, 6, 8, 24, and 30 hours post-dose after subcutaneous administration. Approximately 0.3 mL of blood was collected at each time point. Blood samples were immediately centrifuged at 4° C. The obtained plasma was frozen with dry ice and stored at −20° C. Plasma drug levels were determined using the LC-MS/MS assay described above.
Plasma samples from in vivo dog study were prepared for analysis by precipitating plasma proteins with two volumes of acetonitrile containing an internal standard. The samples were vortex mixed and removed the precipitated proteins by centrifugation. The resulting supernatants were transferred to a 96-well plate and 10 μL were injected for analysis. Samples were prepared with the Packard Multiprobe II and Quadra 96 Liquid Handling System.
The HPLC system consisted of two Shimadzu LC10AD pumps (Columbia, Md.), a CTC PAL autosampler (Leap Technologies, Switzerland). The column used was a YMC Hydrosphere C18 (2.0×50 mm, 3 μm) (YMC, Inc., Milford, Mass.). The column temperature was maintained at 50° C. and the flow rate was 0.3 mL/minute. The mobile phase A consisted of 10 mM ammonium formate and 0.1% formic acid in water and mobile phase B consisted of 0.1% formic acid in acetonitrile. The initial mobile phase composition was 5% B, and remained at 5% B for one minute to equilibrate the column. The composition was ramped to 95% B over two minutes and held there for one additional minute. The mobile phase was then returned to initial conditions in one minute. Total analysis time was five minutes. A switching valve was used. The eluents between 0-1 minute were diverted to the waste.
The HPLC was interfaced to a Sciex API 4000 mass spectrometer, (Applied Biosystems, Foster City, Calif.) and was equipped with a TurboIonspray ionization source. Ultra high purity nitrogen was used as the nebulizing and turbo gas. The temperature of turbo gas was set at 300° C. and the interface heater was set at 60° C. Data acquisition utilized selected reaction monitoring (SRM). Ions representing the (M+2H)^2+ species for the compound of SEQ ID NO:9, and (M+2H)^2+ for BMS-501143 (IS) were selected in Q1 and were collisionally dissociated with high purity nitrogen at a pressure of 3.5×10^−3 torr to form specific product ions which were subsequently monitored by Q3.
The standard curve concentrations, ranging from 1 to 1000 nM and from 4 to 5000 nM, were used for the in vivo samples obtained from low and high doses, respectively. The curves were fitted with a quadratic regression weighted by reciprocal […]. Standards were analyzed in duplicate. Quality control (QC) samples, prepared in blank matrix at the same concentrations as the standard were also analyzed in each analytical set. For the compound of SEQ ID NO:9, the calculated concentrations of more than 80% of the QCs were within 20% of nominal concentration, indicating acceptable assay performance.
The compound of SEQ ID NO:9 plasma concentration vs. time data were analyzed by noncompartmental methods using the […]™ software program. The Cmax and Tmax values were recorded directly from experimental observations. The AUC0-n and AUCtot values were calculated using a combination of linear and log trapezoidal summations. […]

[5] = male, beagle, plasma, 67 ug/kg, dog, intravenous 67 μg/kg, propylene glycol:phosphate buffer (50:50)
[6] = male, beagle, plasma, sc, 67 ug/kg, dog, subcutaneous 67 μg/kg, propylene glycol:phosphate buffer (50:50)

In the case of `CCc1cc(OC)ccc1-c1ccc(C[C@H](NC(=O)[C@H](CC(=O)O)NC(=O)[C@H](CO)NC(=O)[C@@H](NC(=O)[C@](C)(Cc2ccccc2F)NC(=O)[C@@H](NC(=O)CNC(=O)[C@H](CCC(=O)O)NC(=O)C(C)(C)NC(=O)[C@@H](N)Cc2c[nH]cn2)[C@@H](C)O)[C@@H](C)O)C(=O)N[C@@H](Cc2ccc(-c3ccccc3C)nc2)C(N)=O)cc1` [SEQ ID NO: 9] (H-H[Aib]EGT[αMePhe(2-F)]TSD[Bip(2'-Et-4'-OMe)][Ala(6-(2-MePh)pyridin-3-yl)]-NH2), the “Exposure/dose during ipGTT in ob/ob mice” value [1] is reported as 18 nM*h/nmol/kg, the “apparent solubility with addition of Zn (II)” value [2] is reported as “continued to decrease until below the detection limit of HPLC” and the solubility at 12 h ([2]; read-out: concentration of saturated solution (solubility)) is reported as 17 µg/mL. The solubility ([3]; MeOH) was over 50000 µg/mL, the “solubility as a function of protamine in the solution” value ([3]; pH 6.8, 50 mM PB buffer) was “decreases with increase of protamine in the solution” and the “Exposure in dogs (sc@67 μg/kg)” value ([4]; Table I, vehicle 0.2 M Tris buffer (pH 8.0)) was 0.452 µM·h. For the same molecule, the “Exposure in dogs (sc@67 μg/kg)” value ([4]; Table II, vehicle propylene glycol/pH 7.4 phosphate buffer (1:1)) was 1.23 µM·h, the “Vss as % of extracellular fluid” value ([4]; dog, extracellular fluid 0.14 L/kg) was 71 % of extracellular fluid and the “systemic clearance as % of liver blood flow” value ([4]; dog, liver blood flow 31 mL/min/kg) was 3.2 % of liver blood flow. The “Vss as times of vascular fluid” value ([4]; dog, vascular fluid 0.05 L/kg) was 2 times of vascular fluid, the AUC [4, 5] was 1.27 ± 0.299 µM·h and the MRT [4, 5] was 3 ± 1 h. It also gave a clearance ([4]; male, beagle, plasma, 67 ug/kg, dog, intravenous 67 μg/kg, propylene glycol:phosphate buffer (50:50), read-out: CLp) of 0.6 ± 0.1 mL/min/kg, a Vd ([4]; male, beagle, plasma, 67 ug/kg, dog, intravenous 67 μg/kg, propylene glycol:phosphate buffer (50:50), read-out: VSS) of 0.1 ± 0.03 L/kg and a half-life [4, 5] of 5.1 ± 0.5 h. The AUC [4, 6] was 1.22 ± 0.276 µM·h, the MRT [4, 6] was 12.5 ± 2.4 h and the Tmax [4, 6] was 5 ± 1 h. It also gave a half-life [4, 6] of 6.9 ± 1.3 h, a Cmax ([4]; male, beagle, plasma, sc, 67 ug/kg, dog, subcutaneous 67 μg/kg, text of b538, read-out: maximum plasma concentration (Cmax)) of 90 ± 29 nM and a clearance ([4]; male, beagle, whole blood, 67 ug/kg, dog, intravenous 67 μg/kg, propylene glycol:phosphate buffer (50:50), read-out: CLB (systemic clearance)) of 0.9 ± 0.2 mL/min/kg.
